Measurements published in US20110053872A1, “Pharmaceutical Composition For Preventing And Treating Diabetic Nephropathy And The Preparation Method Thereof” (GUANGZHOU CONSUN MEDICINE R & D CO., LTD., priority 2009, published 2011).

Tests used:
[1] = system: DN model Wistar rats induced by streptozotocin; assay: STZ DN model rat: urinary production, total protein, microalbumin and creatinine; assay type: in vivo; settings: for Microalbumin: urine
Experimental: (§1) The DN model Wistar rats were randomly divided into […] with 10 rats each group as indicated: normal glucose group; model group; CAL group (6, 2, 0.7 mg/kg); CAG group (9, 3, 1 mg/kg); CAL+CAG group (CAL:CAG, 2 mg/kg:1 mg/kg, 1 mg/kg:2 mg/kg); Radix Astragali group (5 g/kg); Aminoguanidine group (100 mg/kg).
(§2) The drugs or sodium chloride were intragastric adminstrated once each day for 14 weeks. After the administration, the total volume urine was collected by metabolic cage. The contents of urinary production, total protein, microalbumin and creatinine were determinated, and the biochemical indicators in blood was determinated using automatic biochemical analyzer. Then the kideny with fog Hahn fixation was reserved for histopathological examination.

[2] = system: DN model Wistar rats induced by streptozotocin; assay: STZ DN model rat: serum biochemical indicators; assay type: in vivo; design: AGEs (advanced glycosylation end products): unit not given here
Experimental: as §1, §2

[3] = system: DN model Wistar rats induced by streptozotocin; assay: STZ DN model rat: pathohistological indicators; assay type: in vivo; settings: kidney
Experimental: as §1, §2

[4] = system: Rat mesangial cell line HBZY21; assay: High glucose-induced rat mesangial cell proliferation (MTT reduction assay); assay type: cell-based; settings: 25 mM glucose, 24 h
Experimental: (§3) The mesangial cells in their exponential growth phase were cultured in 96-well plates at densities of 50000 cm^−2 in DMEM (5 mM glucose) at 37° C. in 5% CO2-95% air for 24 h. After pre-incubation in DMEM supplemented without fetal calf serum for 24 h, cells were then treated with various concentrations of glucose or AGEs for 24 h, 48 h, 72 h, 96 h, respectively.
(§4) According to the aboved method, after pre-incubation in DMEM supplemented without fetal calf serum for 24 h, cells were pretreated with 25 mM glucose, then were treated with various concentrations of reagents as indicated: normal glucose group (NG, 5.5 mM glucose); high glucose group (HG, 25 mM glucose); CAL group (CAL, 10, 100 nM); CAG group (CAG, 10, 100 nM); CAL+CAG group (CAL:CAG, 10 μg/ml:5 μg/ml, 5 μg/ml:10 μg/ml); Radix Astragali group (RA, 50 mg/ml aqueous extract). The plates were then incubated for 24 h. Proliferation was examined by MTT reduction assay. Experimental conditions were tested in sextuplicate (six wells of the 96-well plate per experimental condition).

[5] = system: Rat mesangial cell line HBZY21; assay: AGEs-induced rat mesangial cell proliferation (MTT reduction assay); assay type: cell-based; settings: 0.25 mg/ml AGEs, 24 h
Experimental: as §3
as §4, with “Cells” for “According to the aboved method, after pre-incubation in DMEM supplemented without fetal calf serum for 24 h, cells”, “0.25 mg/mlAGEs,” for “25 mM glucose,”, “AGEs” for “high glucose”, “(AGEs, 0.25 mg/mlAGEs);” for “(HG, 25 mM glucose);”

rat mesangial cells [6] = assay: Content of hydroxyproline in cell culture fluid of rat mesangial cells induced by high glucose; assay type: cell-based; settings: high glucose (25 mM)
Experimental: (§5) The treatment was the same as section 2.1 in Experiment 1. The measurement of matrix proliferation was measured by determinating the content of hydroxyproline and the expression of TGFβ-1.
(§6) The coverslips were pre-placed in the 24-wells plates to stick the cells. The cells were treated with various concentrations of reagents as indicated in Experiment 1. After the cells covered with coverslip, the supernatant was used for the determination of hydroxyproline and the slides of cells were treated with stained with immunohistochemical and PAS staining. The cells cultured without TGFβ-1 antibody were taken as the negative control.

rat mesangial cells [7] = assay: ECM accrementition induced by high glucose (PAS staining, FIG. 1); assay type: cell-based; settings: 25 mM glucose
Experimental: wherein A: normal glucose group; B: high glucose group (25 mM); C: Radix Astragali group (RA, 50 mg/ml aqueous extract); D: CAL group (100 nM); E: CAL group (10 nM); F: CAL group (1 nM); G: CAG group (100 nM); H: CAG group (10 nM); I: CAG group (1 nM); J: CAL:CAG group (10 μg/ml:5 μg/ml). K: CAL:CAG group ([…]:10 μg/ml).
as §5, §6

TGFβ-1 = TGFβ-1 expression induced by high glucose (immunohistochemical staining, FIG. 2); assay type: cell-based, rat; settings: 25 mM glucose
Experimental: wherein A: normal glucose group; B: high glucose group (25 mM); C: negative control group; D: CAL group (100 nM); E: CAL group (10 nM); F: CAL group (1 nM); G: CAG group (100 nM); H: CAG group (10 nM); I: CAG group (1 nM); J: Radix Astragali group (RA, 50 mg/ml aqueous extract); K: CAL:CAG group (10 μg/ml:5 μg/ml); L: CAL:CAG group (5 μg/ml:10 μg/ml).
as §5, §6

[8] = 100 mg/kg intragastric once each day for 14 weeks
[9] = 1 mg/kg intragastric once each day for 14 weeks
[10] = 3 mg/kg intragastric once each day for 14 weeks
[11] = 9 mg/kg intragastric once each day for 14 weeks
[12] = 0.7 mg/kg intragastric once each day for 14 weeks
[13] = 2 mg/kg intragastric once each day for 14 weeks
[14] = 6 mg/kg intragastric once each day for 14 weeks

Work on `N=C(N)NN` [Aminoguanidine, reference compound] yielded a Urinary production [1, 8] of 36.2 ± 21.8 mL, a Urine creatinine [1, 8] of 4.0 ± 2.3 mM and a Urine protein [1, 8] of 43.2 ± 29.9 mg. The Microalbumin [1, 8] was 1.00 ± 0.27 mg, the “AGEs (advanced glycosylation end products)” value [2, 8] was 283 ± 78 and the “BUN (Blood urea nitrogen)” value [2, 8] was 6.6 ± 0.8 mmol/L. For the same compound, the LDL [2, 8] was 2.01 ± 0.58 mmol/L, the “MDA (malonaldehyde)” value [2, 8] was 5.9 ± 1.7 nmol/mL and the “SOD (superoxide dismutase)” value [2, 8] was 516 ± 20 U/ml. The “Scr (serum creatinine)” value [2, 8] was 77.7 ± 20.3 µmol/L, the triglyceride [2, 8] was 3.35 ± 0.87 mmol/L and the “ECM score (PAS %)” value [3, 8] was 26.5 ± 4.3 %. For the same compound, the Patho-score [3, 8] was 2.1 ± 1.0 and the “TGFβ-1 (%)” value [3, 8] was 11.7 ± 5.7 %.
In the case of `COc1ccc(-c2coc3cc(O[C@@H]4O[C@H](CO)[C@@H](O)[C@H](O)[C@H]4O)ccc3c2=O)cc1O` [CAG, 3′-hydroxy-4′-methoxyisoflavone-7-O-β-D-glucopyranoside], the “OD value (λ = 490 nm)” value ([4]; 10 nM) is reported as 0.35 ± 0.04, the “OD value (λ = 490 nm)” value ([4]; 100 nM) is reported as 0.33 ± 0.03 and the “OD value (λ = 490 nm)” value ([5]; 10 nM) is reported as 0.34 ± 0.06. For the same compound, the “OD value (λ = 490 nm)” value ([5]; 100 nM) was 0.33 ± 0.04, the “Content of hydroxyproline in cell culture fluid” value (from here on “Content of hydroxyproline”) (rat mesangial cells [6]; 10 nM) was 6.25 ± 1.20 µg/mL and the “Content of hydroxyproline” value (rat mesangial cells [6]; 100 nM) was 6.00 ± 1.53 µg/mL. For the same compound, the “ECM accrementition induced by high glucose” value (rat mesangial cells [7]) was “inhibited”, the “expression of TGFβ-1 induced by high glucose” value (TGFβ-1) was “inhibited” and the Urinary production [1, 9] was 58.9 ± 20.5 mL. For the same compound, the Urine creatinine [1, 9] was 1.3 ± 0.6 mM, the Urine protein [1, 9] was 67.1 ± 18.4 mg and the Urinary production [1, 10] was 42.3 ± 12.8 mL. It also gave a Urine creatinine [1, 10] of 2.7 ± 1.1 mM, a Urine protein [1, 10] of 55.0 ± 13.4 mg and a Urinary production [1, 11] of 33.9 ± 20.2 mL. The Urine creatinine [1, 11] was 4.2 ± 1.6 mM, the Urine protein [1, 11] was 44.2 ± 20.6 mg and the Microalbumin [1, 9] was 1.52 ± 0.56 mg. The Microalbumin [1, 10] was 0.90 ± 0.45 mg, the Microalbumin [1, 11] was 0.93 ± 0.22 mg and the “AGEs (advanced glycosylation end products)” value [2, 9] was 288 ± 44. The “BUN (Blood urea nitrogen)” value [2, 9] was 6.9 ± 0.9 mmol/L, the LDL [2, 9] was 1.94 ± 0.44 mmol/L and the “MDA (malonaldehyde)” value [2, 9] was 7.9 ± 1.6 nmol/mL. The “SOD (superoxide dismutase)” value [2, 9] was 490 ± 23 U/ml, the “Scr (serum creatinine)” value [2, 9] was 89.0 ± 21.1 µmol/L and the triglyceride [2, 9] was 3.20 ± 0.71 mmol/L. The “AGEs (advanced glycosylation end products)” value [2, 10] was 281 ± 46, the “BUN (Blood urea nitrogen)” value [2, 10] was 6.7 ± 0.8 mmol/L and the LDL [2, 10] was 1.60 ± 0.43 mmol/L. The “MDA (malonaldehyde)” value [2, 10] was 6.5 ± 1.4 nmol/mL, the “SOD (superoxide dismutase)” value [2, 10] was 502 ± 31 U/ml and the “Scr (serum creatinine)” value [2, 10] was 73.5 ± 22.5 µmol/L. The triglyceride [2, 10] was 2.66 ± 0.72 mmol/L, the “AGEs (advanced glycosylation end products)” value [2, 11] was 275 ± 68 and the “BUN (Blood urea nitrogen)” value [2, 11] was 5.9 ± 1.6 mmol/L. For the same compound, the LDL [2, 11] was 1.23 ± 0.26 mmol/L, the “MDA (malonaldehyde)” value [2, 11] was 6.5 ± 1.2 nmol/mL and the “SOD (superoxide dismutase)” value [2, 11] was 512 ± 19 U/ml. For the same compound, the “Scr (serum creatinine)” value [2, 11] was 74.2 ± 16.0 µmol/L, the triglyceride [2, 11] was 2.43 ± 0.70 mmol/L and the “ECM score (PAS %)” value [3, 9] was 32.5 ± 4.1%. The Patho-score [3, 9] was 2.8 ± 0.9, the “TGFβ-1 (%)” value [3, 9] was 20.0 ± 4.3 % and the “ECM score (PAS %)” value [3, 10] was 28.9 ± 5.4 %. For the same compound, the Patho-score [3, 10] was 1.9 ± 1.1, the “TGFβ-1 (%)” value [3, 10] was 16.2 ± 4.7 % and the “ECM score (PAS %)” value [3, 11] was 26.9 ± 4.5 %. For the same compound, the Patho-score [3, 11] was 1.7 ± 0.9 and the “TGFβ-1 (%)” value [3, 11] was 9.1 ± 2.2 %.
With `COc1ccc(-c2coc3cc(O)ccc3c2=O)cc1O` [CAL] the “OD value (λ = 490 nm)” value ([4]; 10 nM) was 0.34 ± 0.02, the “OD value (λ = 490 nm)” value ([4]; 100 nM) was 0.33 ± 0.05 and the “OD value (λ = 490 nm)” value ([5]; 10 nM) was 0.42 ± 0.04. The “OD value (λ = 490 nm)” value ([5]; 100 nM) was 0.34 ± 0.04, the “Content of hydroxyproline” value (rat mesangial cells [6]; 10 nM) was 7.15 ± 1.19 µg/mL and the “Content of hydroxyproline” value (rat mesangial cells [6]; 100 nM) was 6.65 ± 1.74 µg/mL. The “ECM accrementition induced by high glucose” value (rat mesangial cells [7]) was “inhibited”, the “expression of TGFβ-1 induced by high glucose” value (TGFβ-1) was “inhibited” and the Urinary production [1, 12] was 59.9 ± 21.8 mL. It also gave a Urine creatinine [1, 12] of 1.4 ± 0.6 mM, a Urine protein [1, 12] of 69.1 ± 20.4 mg and a Urinary production [1, 13] of 41.3 ± 16.8 mL. The Urine creatinine [1, 13] was 2.9 ± 1.2 mM, the Urine protein [1, 13] was 54.0 ± 17.4 mg and the Urinary production [1, 14] was 35.9 ± 22.2 mL. For the same compound, the Urine creatinine [1, 14] was 4.3 ± 2.0 mM, the Urine protein [1, 14] was 46.2 ± 21.3 mg and the Microalbumin [1, 12] was 1.57 ± 0.56 mg. The Microalbumin [1, 13] was 0.93 ± 0.55 mg, the Microalbumin [1, 14] was 0.92 ± 0.42 mg and the “AGEs (advanced glycosylation end products)” value [2, 12] was 290 ± 59. The “BUN (Blood urea nitrogen)” value [2, 12] was 7.0 ± 1.0 mmol/L, the LDL [2, 12] was 1.91 ± 0.55 mmol/L and the “MDA (malonaldehyde)” value [2, 12] was 7.8 ± 2.3 nmol/mL. The “SOD (superoxide dismutase)” value [2, 12] was 498 ± 33 U/ml, the “Scr (serum creatinine)” value [2, 12] was 91.0 ± 31.1 µmol/L and the triglyceride [2, 12] was 3.23 ± 0.76 mmol/L. The “AGEs (advanced glycosylation end products)” value [2, 13] was 289 ± 56, the “BUN (Blood urea nitrogen)” value [2, 13] was 6.6 ± 1.2 mmol/L and the LDL [2, 13] was 1.51 ± 0.53 mmol/L. For the same compound, the “MDA (malonaldehyde)” value [2, 13] was 6.8 ± 1.9 nmol/mL, the “SOD (superoxide dismutase)” value [2, 13] was 513 ± 41 U/ml and the “Scr (serum creatinine)” value [2, 13] was 76.6 ± 24.5 µmol/L. The triglyceride [2, 13] was 2.76 ± 0.80 mmol/L, the “AGEs (advanced glycosylation end products)” value [2, 14] was 281 ± 78 and the “BUN (Blood urea nitrogen)” value [2, 14] was 6.5 ± 1.5 mmol/L. For the same compound, the LDL [2, 14] was 1.43 ± 0.36 mmol/L, the “MDA (malonaldehyde)” value [2, 14] was 6.8 ± 1.3 nmol/mL and the “SOD (superoxide dismutase)” value [2, 14] was 520 ± 29 U/ml. For the same compound, the “Scr (serum creatinine)” value [2, 14] was 75.2 ± 17.1 µmol/L, the triglyceride [2, 14] was 2.57 ± 0.80 mmol/L and the “ECM score (PAS %)” value [3, 12] was 33.1 ± 5.1%. For the same compound, the Patho-score [3, 12] was 2.7 ± 1.0, the “TGFβ-1 (%)” value [3, 12] was 19.3 ± 6.3 % and the “ECM score (PAS %)” value [3, 13] was 29.8 ± 5.6 %. For the same compound, the Patho-score [3, 13] was 1.8 ± 1.3, the “TGFβ-1 (%)” value [3, 13] was 17.6 ± 5.8 % and the “ECM score (PAS %)” value [3, 14] was 27.0 ± 5.5 %. The Patho-score [3, 14] was 1.6 ± 1.1 and the “TGFβ-1 (%)” value [3, 14] was 8.8 ± 3.2 %.
